Results on 2 molecules are retold here after patent US20230372337A1, “Combination Therapy Comprising an AXL Inhibitor” (BERGENBIO ASA, priority 2020, published 2023).

Usually IC50 stands for the concentration that inhibits the measured activity by half.

Data set [1] concerns 4T1 mammary carcinoma cells. Briefly: Metastasis, tumor weight and spleen weight post sacrifice, 4T1 model (Example 1). Type of data set: in vivo, BALB/c mice. To be noted: for Lung macro metastasis: count per animal (A1-A15) after sacrifice, 10+ = massive lung metastasis; for Average spleen weight / Average tumor weight: post sacrifice, average of each group. Here is the method: Spleens were weighed and inspected for macroscopic metastasis and cut in half along the long axis. Half of the spleen was snap frozen, with the other half fixed in 4% formalin for 24 hours at room temperature and stored in 70% ethanol at 4° C. until embedding in paraffin.
Livers were inspected for macroscopic metastasis and fixed in 4% formalin for 24 hours at room temperature and stored in 70% ethanol at 4° C. until embedding in paraffin.
Lungs were inspected for macroscopic metastasis and fixed in 4% formalin for 24 hours at room temperature and stored in 70% ethanol at 4° C. until embedding in paraffin.
Tumors were weighed and cut in half along the long axis, one half was snap frozen in liquid nitrogen in 2 cryotubes per tumor, while the other half was fixed in 4% formalin for 24 hours at room temperature and stored in 70% ethanol at 4° C. until embedding in paraffin.

For a further data set, the system named is 43 mouse cytokines. Briefly: Plasma cytokines, ProcartaPlex Multiplex Immunoassay (Luminex) (Example 2). The class given is in vivo, Balb/c mice. The note with it: 1 mg/kg doxorubicin i.t., 72 h post injection, 43 measured.
A further data set relates to Yumm 1.7 cells. The experiment in a line: Metastasis, tumor weight and spleen weight, Yumm1.7 model (Example 3). To be noted: average on the day of sacrifice. Type of data set: in vivo, C57Bl6 mice. Here is the method:
Spleens were weighed and prepared for Cytof (cut into pieces of 2 mm and frozen in FBS 90%, DMSO 10% and stored at −80° C. prior to dissociation).
Tumors were weighed and cut in 3 along the long axis, one third was snap frozen in liquid nitrogen in 2 cryotubes per tumor, another third was prepared for Cytof (Cut into pieces of 2 mm and frozen in FBS 90%, DMSO 10% and stored at −80C prior to dissociation). The last piece was fixed in 4% formalin for 24 hours at room temperature and stored in 70% ethanol at 4° C. until embedding in paraffin.

In another data set the test system is IFN related genes (ISG). The experiment in a line: qRTPCR of IFN related genes in Yumm1.7 tumors after sacrifice (Example 3). Type of data set: in vivo, C57Bl6 mice. The note with it: 35 IFN related genes tested. As to the method:
RNA was extracted from snap frozen tumors using the RNEasy Microarray Tissue Mini kit from Qiagen following the manufacturer's instructions. As tumors contained Doxorubicin and powderizing them could expose personnel to harmful substances, the RNA was extracted in a closed system using the GentleMACS dissociator and M Tubes. Purity and concentration of RNA was measured using Nanodrop. cDNA was synthesized from RNA using the RT^2 First Strand kit (Qiagen) according to the manufacturer's instructions. cDNA was mixed with SYBR Green Mastermix (Qiagen) and loaded into PCR plates with different probes against interferon related genes (listed in table 14). The plates were analyzed using Light Cycler 480 (Roche) and data were analyzed using Graph Pad (Prism).
Tumors from 4 animals treated either with Vehicle (group A), bemcentinib (Group B), Doxorubicin (group F) or bemcentinib+Doxorubicin (group H) were analyzed. Data are presented as fold changes compared to Vehicle treated mice. 35 IFN related genes (Table 14) were tested by RT PCR. Fold change was obtained compared to the control group (A). […]
A molecular mechanism focused study will be performed later; here samples were collected after sacrifice, meaning many days after treatment for some of the groups. The expression of 35 ISG as well, immune checkpoint related genes EMT related genes, Axl and Gas6 were analyzed by qRTPCR (Table 14).

In data set [2] the test system is 4T1 cells. The experiment in a line: RNA sequencing of 4T1 cells in vitro (Example 4). The class given is cell-based, mouse. To be noted: without supplemental Gas6.
In data set [3] the test system is 4T1 mammary carcinoma cells. Briefly: 4T1 syngeneic mammary carcinoma model, tumor growth and survival (Example 1). To be noted: 4T1 model; for Effect on mouse survival: without the CPI treatment, 500 mm^3.
Source text: Exponentially growing 4T1 mammary carcinoma cells were harvested and re-suspended at 4×10^6 per ml in the mixture of serum-free RPMI medium and Matrigel (1:1). Only cells with over 95% viability have been used for in vivo study.
Each animal was weighed before cell implantation. Mice were anesthetized by inhalation of Sevoflurane. Anesthesia was induced at 8% Sevoflurane and maintained at 4%. Every mouse was placed on a heating pad and appropriately marked. Under a suitable depth of unconsciousness, animals were shaved, and the skin and surrounding region washed with Chlorhexidine (1 mg/ml) with use of sterile gauze. Injection was done orthotopically with one tumor per mouse with 0.05 ml of approximately 2×10^5 4T1 cells in serum-free RPMI medium/Matrigel (1:1).
2 randomizations were performed on 150 mice in 30 cages, with 5 animals per cage. The first randomization was performed on day 11 post implantation. The average of tumor volume of animals in each cage was determined. The average tumor volume in the cages was from 3.8 mm^3 to 19.7 mm^3. […] The first randomization was conducted with Latin square method based on the average tumor volume of all animals in each cage. […] Once the average tumor size reached 70 mm^3 for vehicle treated animals and 76 mm^3 for bemcentinib treated animals (tumor volume=L×W×W/2) the second randomization was performed prior to injection of chemotherapeutic agent (doxorubicin) on day 16. Randomization 2 was conducted with Latin square method based on average tumor volume of all animals in the bemcentinib group and in the vehicle group from randomization 1. […]
Tumor growth was measured with a digital hand held caliper at least twice weekly (once tumor emerges), prior to the first dosing, and then on the day of euthanasia.
When tumors reached an average of 7-170 mm^3, each animal received Doxorubicin (Dox) at a concentration of 0.5 mg/ml (groups C,D,F and H) in a total volume of 50 ul×TV/120 as indicated in Table 1. […] Total drug dose was calculated based on each animal's individual tumor size. […]
The conditions of data set [4]: mouse, in vivo. The text has this:
Animals were weighed prior to tumor cell injection, prior to daily dosing and prior to euthanasia.

The subject of data set [5] is 4T1 mammary carcinoma cells. The experiment in a line: Tumor growth, 4T1 model (Example 2). Set-up: species or system Balb/c mice. The note with it: short in vivo study, single i.t. injection day 15.
Procedure: Tumor growth was measured with a digital handheld caliper twice weekly from emergence of tumor and until the day of euthanasia
For data set [6], the system named is 4T1 cells. Briefly: qRTPCR of IFN related genes in 4T1 cells in vitro (Example 4). The class given is cell-based, mouse. The note with it: doxorubicin, 42 ISG measured.
For data set [7], the system named is LL2 cells. Briefly: Resazurin viability assay of LL2 cells (Example 4). The class given is cell-based, mouse. As to the method:
(§1) 4T1 cells (ATCC, CRL-2539) were cultured in RPMI-1640 (Sigma, Cat. #R8758) supplemented with 10% fetal bovine serum (FBS), L-glutamine (4 mM), streptomycin (5 μg/ml) and penicillin (5 U/ml). […] Lewis lung carcinoma cells LL/2 (LLC1) (ATCC, CRL-1642™) were cultured in Dulbecco's Modified Eagle's Medium ATCC® 30-2002™ (4 mM L-glutamine, 4500 mg/L glucose, 1 mM sodium pyruvate, and 1500 mg/L sodium bicarbonate).
(§2) The IC50 of the different drugs were calculated by resazurin viability assay. […] The cells were treated for 48 hours.
In general terms: Resazurin is reduced to fluorescent resorufin, in cell work by metabolically active cells.

In data set [8] the test system is LL2 cells. The experiment in a line: qRTPCR of IFN related genes in Lewis lung carcinoma (LL2) cells in vitro (Example 4). Type of data set: cell-based, mouse. The note with it: Doxorubicin 50 nM, 48 hours. As to the method: as §1
RNA was extracted from snap frozen tumors using the RNEasy Microarray Tissue Mini kit from Qiagen following the manufacturer's instructions. As tumors contained Doxorubicin and powderizing them could expose personnel to harmful substances, the RNA was extracted in a closed system using the GentleMACS dissociator and M Tubes. Purity and concentration of RNA was measured using Nanodrop. RT^2 Profiler™ PCR Array. cDNA was synthesized from RNA using the RT^2 First Strand kit (Qiagen) according to the manufacturer's instructions. cDNA was mixed with RT^2 SYBR Green Mastermix (Qiagen) and loaded into RT^2 Profiler™ PCR Array Mouse Type I Interferon Response or RT^2 Profiler™ PCR Array Mouse Epithelial to Mesenchymal Transition (EMT), analyzing the expression of the genes listed in Table 17. The plates were analyzed using Light Cycler 480 (Roche) and data were analyzed using the Qiagen Data Analysis Centre and Graph Pad (Prism).
Chemotherapeutic agents commonly used to treat lung cancer patients were evaluated for effects on the IFN response. Cisplatin, navelbine and docetaxel were tested in vitro in combination with bemcentinib.
as §2
Background: Quantitative PCR measures a nucleic acid by following its amplification.

Values joined by “and” are separate entries in the source; they are usually repeats but may differ in a detail not shown here. Equal entries are not always repeated. Where two headings read alike, the source gives them in different places.

Procedure for 43 mouse cytokines: The manufacturer user guide was followed. The samples were analyzed by (MAGPIX) and the results were obtained as concentration in pg/ml of mouse plasma. At least 3 samples per group, 4 for many, were analyzed.

Take `Nc1nc(Nc2ccc3c(c2)CC[C@@H](N2CCCC2)CC3)nn1-c1cc2c(nn1)-c1ccccc1CCC2` [Bemcentinib, bemcentinib]: the Lung macro metastasis in data set [1] (listed as Bem + PBS + Igg) is 6 and 10+ (2×) and 5 (3×) and 0 and 4 and 2 and 10. In data set [1], the Average spleen weight worked out at 0.9333 g and the Average tumor weight turned out to be 1.556 g. Further, the “Cytokines with a significant decrease of concentration (number)” value in the data set with 43 mouse cytokines came to 4. The Spleen weight with Yumm 1.7 cells is on record as 0.10 g. In addition, the “ISG significantly upregulated compared to control (number)” value in the data set on IFN related genes (ISG) was found to be 4. The “IFN related gene expression by RNA sequencing” value in the data set with 4T1 cells [2] is reported as “limited IFN type I response”. Also, the “Median survival (tumor volume 1000 mm^3)” value in [3] (days until tumor 1000 mm^3 or sacrifice due to severe symptoms) is reported as 34.5 days. Further, the “Effect on mouse survival” value in data set [3] is “do not show any effect”.
Take `COc1cccc2c1C(=O)c1c(O)c3c(c(O)c1C2=O)C[C@@](O)(C(=O)CO)C[C@@H]3O[C@H]1C[C@H](N)[C@H](O)[C@H](C)O1` [Doxorubicin, doxorubicin]: the Lung macro metastasis in [1] (listed as Vehicle + Dox + Igg) was 10+ (2×) and 6 and 3 and 0 (2×) and 4 (2×) and 5. For the same molecule, the Average spleen weight in data set [1] is 1.16 g. In addition, in data set [1], the Average tumor weight was 1.51 g. For the same molecule, the “Effect on the body weight of mice” value in data set [4] is listed as “limited effect”. The Tumor growth entry in [5] was “no effect”. In addition, in the data set with Yumm 1.7 cells, the Spleen weight is 0.17 g. Further, the “ISG significantly upregulated compared to control (number)” value was “No gene” in the data set with IFN related genes (ISG) and “limited IFN response” in the data set with LL2 cells [8]. Moreover, the “ISG with significant mRNA fold change upregulation compared to control (number)” value with 4T1 cells [6] stood at 9. The IC50 was 0.178 µM in the data set on LL2 cells [7] (Mus musculus, LL/2, read-out: IC50 without bem) and 0.0703 µM in the data set on LL2 cells [7] (in the presence of bemcentinib, read-out: IC50 with bem). In addition, in data set [3], the “Effect on mouse survival” value is “do not show any effect”.
